Reference: paper PMC11350787, “Antimicrobial Properties and Cytotoxicity of LL-37-Derived Synthetic Peptides to Treat Orthopedic Infections” (Antibiotics, 2024)
Counter-ions that a name gives are not always drawn. Peptide text beside a SMILES is read from it.

Columns and labels:
E. coli ATCC 25922 = experiment: microbe, parasite or virus in culture; details: for Minimum Inhibitory Concentration (MIC): ATCC 25922, 18 h; for Minimum Bactericidal Concentration (MBC): ATCC 25922, 24 h
Excerpt: (§1) A total of 18 bacterial strains relevant to orthopedic infections were used for microbiological tests, including 8 ATCC (American Type Culture Collection, ATCC, Manassas, VA, USA) and 10 clinical isolates (CI) from the Laboratory of Clinical Chemistry and Microbiology, IRCCS Ospedale Galeazzi–Sant’Ambrogio of Milan (Italy) strain collection. The ATCC strains were used for the first screening (MIC/MBC) of all the AMPs produced, while the clinical isolates were used for further MIC/MBC assays on selected AMPs. Among CI, S. epidermidis GOI1153754-03-14 has been already characterized and used in previous studies. All the strains were stocked at −80°C and working stocks were stored at −20 °C. At the occurrence, the bacteria were resuscitated in Brain Hearth Infusion (BHI, Millipore, Milan, Italy) broth at 37 °C for 18 h from the working stocks.
(§2) To determine the minimum inhibitory concentration (MIC) and the minimum bactericidal concentration (MBC), ISO20776-1 and Clinical and Laboratory Standards Institute guidelines were followed. A commercial synthetic LL-37 (Aurogene, Rome, Italy) was used as the control in the MIC and MBC assays. A stock solution of each AMP was prepared at 600 µg/mL to achieve a final concentration of 300 µg/mL. […] The MIC was determined according to the aforementioned standard guidelines. The MBC was determined by plating 2 µL of culture from each well of the MIC plates on a Tryptic Soy Agar (TSA, Millipore, Milan, Italy) plate and incubated for 24 h at 37 °C. The concentration at which there was no growth was recorded as MBC. Each experiment was carried out in triplicate. Representative MIC and MBC values for vancomycin and gentamicin were assessed to offer a benchmark comparison for the AMPs. Quality control was conducted with Staphylococcus aureus ATCC 29,213 and vancomycin according to EUCAST guidelines.

P. aeruginosa ATCC 27853 = experiment: microbe, parasite or virus in culture; details: for Minimum Inhibitory Concentration (MIC): ATCC 27853, 18 h; for Minimum Bactericidal Concentration (MBC): ATCC 27853, 24 h
Excerpt: as §1, §2

S. aureus ATCC 25923 = experiment: microbe, parasite or virus in culture; details: for Minimum Inhibitory Concentration (MIC): ATCC 25923, 18 h; for Minimum Bactericidal Concentration (MBC): ATCC 25923, 24 h
Excerpt: as §1, §2

S. aureus ATCC 43300 = experiment: microbe, parasite or virus in culture; details: for Minimum Inhibitory Concentration (MIC): ATCC 43300, 18 h; for Minimum Bactericidal Concentration (MBC): ATCC 43300, 24 h
Excerpt: as §1, §2

S. aureus ATCC 49230 = experiment: microbe, parasite or virus in culture; details: for Minimum Inhibitory Concentration (MIC): ATCC 49230, 18 h; for Minimum Bactericidal Concentration (MBC): ATCC 49230, 24 h
Excerpt: as §1, §2

[1] = test system: S. epidermidis ATCC 14990; experiment: microbe, parasite or virus in culture; details: for Minimum Inhibitory Concentration (MIC): ATCC 14990, 18 h; for Minimum Bactericidal Concentration (MBC): ATCC 14990, 24 h
Excerpt: as §1, §2

[2] = test system: S. epidermidis ATCC 35984; experiment: microbe, parasite or virus in culture; details: for Minimum Inhibitory Concentration (MIC): ATCC 35984, 18 h; for Minimum Bactericidal Concentration (MBC): ATCC 35984, 24 h
Excerpt: as §1, §2

ATCC strains = test system: ATCC strains
Excerpt: as §1, §2

Row | Structure (SMILES) | Minimum Inhibitory Concentration (MIC) (E. coli ATCC 25922) | Minimum Bactericidal Concentration (MBC) (E. coli ATCC 25922) | Minimum Inhibitory Concentration (MIC) (P. aeruginosa ATCC 27853) | Minimum Bactericidal Concentration (MBC) (P. aeruginosa ATCC 27853) | Minimum Inhibitory Concentration (MIC) (S. aureus ATCC 25923) | Minimum Bactericidal Concentration (MBC) (S. aureus ATCC 25923) | Minimum Inhibitory Concentration (MIC) (S. aureus ATCC 43300) | Minimum Bactericidal Concentration (MBC) (S. aureus ATCC 43300) | Minimum Inhibitory Concentration (MIC) (S. aureus ATCC 49230) | Minimum Bactericidal Concentration (MBC) (S. aureus ATCC 49230) | Minimum Inhibitory Concentration (MIC) [1] | Minimum Bactericidal Concentration (MBC) [1] | Minimum Inhibitory Concentration (MIC) [2] | Minimum Bactericidal Concentration (MBC) [2] | also measured
1 | CC[C@H](C)[C@H](NC(=O)[C@H](CCCNC(=N)N)NC(=O)[C@H](CCC(N)=O)NC(=O)[C@@H](NC(=O)[C@@H](NC(=O)[C@H](CCCNC(=N)N)NC(=O)[C@H](CCCCN)NC(=O)[C@@H](N)Cc1ccccc1)[C@@H](C)CC)C(C)C)C(=O)N[C@@H](CCCCN)C(=O)N[C@@H](CC(=O)O)C(=O)N[C@@H](Cc1ccccc1)C(=O)N[C@@H](CC(C)C)C(=O)N[C@@H](CCCNC(=N)N)C(N)=O [FK-13] (H-FKRIVQRIKDFLR-NH2) | 75.00 µg/mL | 150.00 µg/mL | 300.00 µg/mL | 300.00 µg/mL | 300.00 µg/mL | >300.00 µg/mL | 300.00 µg/mL | >300.00 µg/mL | >300.00 µg/mL | >300.00 µg/mL | 150.00 µg/mL | 150.00 µg/mL | 150.00 µg/mL | 150.00 µg/mL | MBC values over all ATCC strains tested (ATCC strains; 18 h): greater than 300 µg/mL
2 | CC[C@H](C)[C@H](NC(=O)[C@H](CCCNC(=N)N)NC(=O)[C@H](CCC(N)=O)NC(=O)[C@@H](NC(=O)[C@@H](NC(=O)[C@H](CCCNC(=N)N)NC(=O)[C@@H](N)CCCCN)[C@@H](C)CC)C(C)C)C(=O)N[C@@H](CCCCN)C(=O)N[C@@H](CC(=O)O)C(=O)N[C@@H](Cc1ccccc1)C(=O)N[C@@H](CC(C)C)C(=O)N[C@@H](CCCNC(=N)N)C(N)=O [KR-12] (H-KRIVQRIKDFLR-NH2) | >300.00 µg/mL | >300.00 µg/mL | >300.00 µg/mL | >300.00 µg/mL | >300.00 µg/mL | >300.00 µg/mL | >300.00 µg/mL | >300.00 µg/mL | >300.00 µg/mL | >300.00 µg/mL | >300.00 µg/mL | >300.00 µg/mL | >300.00 µg/mL | >300.00 µg/mL | MIC values over all ATCC strains tested (ATCC strains; 18 h): greater than 300 µg/mL
3 | O=C(O)C(F)(F)F [Na-TFA, Trifluoroacetic acid, reference compound] | – | – | – | – | – | – | – | – | – | – | – | – | – | – | MBC (E. coli ATCC 25922; Escherichia coli, ATCC25922, 24 h, read-out: Minimum Bactericidal Concentration (MBC)): > 200 µg/mL; MIC (E. coli ATCC 25922; Escherichia coli, ATCC25922, read-out: Minimum Inhibitory Concentration (MIC)): > 200 µg/mL; MBC (P. aeruginosa ATCC 27853; Pseudomonas aeruginosa, ATCC27853, 24 h, read-out: Minimum Bactericidal Concentration (MBC)): > 200 µg/mL; MIC (P. aeruginosa ATCC 27853; Pseudomonas aeruginosa, ATCC27853, read-out: Minimum Inhibitory Concentration (MIC)): > 200 µg/mL; MBC (S. aureus ATCC 25923; Staphylococcus aureus, ATCC25923, 24 h, read-out: Minimum Bactericidal Concentration (MBC)): > 200 µg/mL; MIC (S. aureus ATCC 25923; Staphylococcus aureus, ATCC25923, read-out: Minimum Inhibitory Concentration (MIC)): > 200 µg/mL; MBC (S. aureus ATCC 43300; Staphylococcus aureus, ATCC43300, 24 h, read-out: Minimum Bactericidal Concentration (MBC)): > 200 µg/mL; MIC (S. aureus ATCC 43300; Staphylococcus aureus, ATCC43300, read-out: Minimum Inhibitory Concentration (MIC)): > 200 µg/mL; MBC (S. aureus ATCC 49230; Staphylococcus aureus, ATCC49230, 24 h, read-out: Minimum Bactericidal Concentration (MBC)): > 200 µg/mL; MIC (S. aureus ATCC 49230; Staphylococcus aureus, ATCC49230, read-out: Minimum Inhibitory Concentration (MIC)): > 200 µg/mL; MBC ([1]; Staphylococcus epidermidis, ATCC14990, 24 h, read-out: Minimum Bactericidal Concentration (MBC)): > 200 µg/mL; MIC ([1]; Staphylococcus epidermidis, ATCC14990, read-out: Minimum Inhibitory Concentration (MIC)): > 200 µg/mL; MBC ([2]; Staphylococcus epidermidis, ATCC35984, 24 h, read-out: Minimum Bactericidal Concentration (MBC)): > 200 µg/mL; MIC ([2]; Staphylococcus epidermidis, ATCC35984, read-out: Minimum Inhibitory Concentration (MIC)): > 200 µg/mL; Bacteriostatic or bactericidal effect (ATCC strains; all ATCC strains, at the concentrations tested (up to 200 µg/mL)): no bacteriostatic or bactericidal effect
